Measurements: publication PMC5392334, “Discovery and characterization of a novel irreversible EGFR mutants selective and potent kinase inhibitor CHMFL-EGFR-26 with a distinct binding mode” (Oncotarget, 2017)

How the values were obtained:
[1] = molecular target: T1, CSF1R-autoinhibited (Homo sapiens, UniProt P07333); experiment: KinomeScan; assay type: binding; settings: read-out: % control
T1 construct: purchased DiscoveRx KINOMEscan

[2] = molecular target: T2, GAK (Homo sapiens, UniProt O14976); experiment: KinomeScan; assay type: binding; settings: read-out: % control
T2 construct: purchased DiscoveRx KINOMEscan

[3] = molecular target: T3, CDKL1 (Homo sapiens, UniProt Q00532); experiment: KinomeScan; assay type: binding; settings: read-out: % control
T3 construct: purchased DiscoveRx KINOMEscan

[4] = molecular target: T4, CSNK2A2 (Homo sapiens, UniProt P19784); experiment: KinomeScan; assay type: binding; settings: read-out: % control
T4 construct: purchased DiscoveRx KINOMEscan

[5] = molecular target: T5, EPHA5 (Homo sapiens, UniProt P54756); experiment: KinomeScan; assay type: binding; settings: read-out: % control
T5 construct: purchased DiscoveRx KINOMEscan
T5 sequence (P54756 25-1037): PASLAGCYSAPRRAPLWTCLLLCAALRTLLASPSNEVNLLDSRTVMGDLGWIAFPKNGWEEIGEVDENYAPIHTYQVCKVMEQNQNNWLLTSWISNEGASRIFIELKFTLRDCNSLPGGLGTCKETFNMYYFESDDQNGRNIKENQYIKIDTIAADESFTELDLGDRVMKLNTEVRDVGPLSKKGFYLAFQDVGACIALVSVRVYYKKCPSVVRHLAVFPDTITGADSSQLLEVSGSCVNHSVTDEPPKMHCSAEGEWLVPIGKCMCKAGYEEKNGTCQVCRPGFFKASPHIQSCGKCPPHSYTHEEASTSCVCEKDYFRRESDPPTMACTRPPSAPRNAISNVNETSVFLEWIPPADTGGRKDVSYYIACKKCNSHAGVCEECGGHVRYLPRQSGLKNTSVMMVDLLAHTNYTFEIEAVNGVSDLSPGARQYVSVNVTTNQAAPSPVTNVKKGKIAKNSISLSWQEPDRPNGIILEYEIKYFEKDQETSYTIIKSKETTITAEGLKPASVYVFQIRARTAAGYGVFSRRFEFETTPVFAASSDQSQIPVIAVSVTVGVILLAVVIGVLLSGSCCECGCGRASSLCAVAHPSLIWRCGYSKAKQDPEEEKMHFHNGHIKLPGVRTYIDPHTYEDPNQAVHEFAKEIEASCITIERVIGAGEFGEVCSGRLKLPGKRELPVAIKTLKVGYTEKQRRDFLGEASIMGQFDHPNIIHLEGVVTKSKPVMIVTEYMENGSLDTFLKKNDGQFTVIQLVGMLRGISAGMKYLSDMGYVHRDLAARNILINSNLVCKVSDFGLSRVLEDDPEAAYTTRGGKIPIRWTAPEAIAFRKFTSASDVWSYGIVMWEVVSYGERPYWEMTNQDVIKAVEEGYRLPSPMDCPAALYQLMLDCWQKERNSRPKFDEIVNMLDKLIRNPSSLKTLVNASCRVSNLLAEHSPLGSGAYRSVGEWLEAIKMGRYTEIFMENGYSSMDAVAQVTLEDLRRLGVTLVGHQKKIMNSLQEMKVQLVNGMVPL

[6] = molecular target: T6, ERK1 (Homo sapiens, UniProt P27361); experiment: KinomeScan; assay type: binding; settings: read-out: % control
T6 construct: purchased DiscoveRx KINOMEscan

[7] = molecular target: T7, TXK (Homo sapiens, UniProt P42681); experiment: KinomeScan; assay type: binding; settings: read-out: % control
T7 construct: purchased DiscoveRx KINOMEscan

[8] = molecular target: T8, MAK (Homo sapiens, UniProt P20794); experiment: KinomeScan; assay type: binding; settings: read-out: % control
T8 construct: purchased DiscoveRx KINOMEscan

[9] = molecular target: T9, PAK2 (Homo sapiens, UniProt Q13177); experiment: KinomeScan; assay type: binding; settings: read-out: % control
T9 construct: purchased DiscoveRx KINOMEscan

[10] = molecular target: T10, CSNK2A1 (Homo sapiens, UniProt P68400); experiment: KinomeScan; assay type: binding; settings: read-out: % control
T10 construct: purchased DiscoveRx KINOMEscan

[11] = tested on: BaF3-TEL-EGFR; experiment: Anti-proliferation, BaF3 isogenic cell lines (CellTiter-Glo); assay type: cell-based; settings: Mus musculus, 72 hours, triplet testing
[12] = molecular target: T11, BLK (Homo sapiens, UniProt P51451); experiment: KinomeScan; assay type: binding; settings: read-out: % control
T11 construct: purchased Invitrogen (SelectScreen service)

[13] = molecular target: T12, IGF1R (Homo sapiens, UniProt P08069); experiment: KinomeScan; assay type: binding; settings: read-out: % control
T12 construct: purchased DiscoveRx KINOMEscan

[14] = molecular target: T13, FGFR3 (Homo sapiens, UniProt P22607); experiment: KinomeScan; assay type: binding; settings: read-out: % control
T13 construct: purchased DiscoveRx KINOMEscan

[15] = molecular target: T14, ABL2 (Homo sapiens, UniProt P42684); experiment: KinomeScan; assay type: binding; settings: read-out: % control
T14 construct: purchased DiscoveRx KINOMEscan

[16] = molecular target: T15, CSNK1D (Homo sapiens, UniProt P48730); experiment: KinomeScan; assay type: binding; settings: read-out: % control
T15 construct: purchased DiscoveRx KINOMEscan

[17] = molecular target: T16, MEK6 (Homo sapiens, UniProt P52564); experiment: KinomeScan; assay type: binding; settings: read-out: % control
T16 construct: purchased DiscoveRx KINOMEscan

[18] = molecular target: T17, PRKCI (Homo sapiens, UniProt P41743); experiment: KinomeScan; assay type: binding; settings: read-out: % control
T17 construct: purchased DiscoveRx KINOMEscan

[19] = tested on: BaF3-FL-EGFR-L858R-T790M-C797S; experiment: Anti-proliferation, BaF3 isogenic cell lines (CellTiter-Glo); assay type: cell-based; settings: Mus musculus, 72 hours, triplet testing
[20] = molecular target: RPS6KA4(Kin.Dom.2-C-terminal) (Homo sapiens, UniProt O75676); experiment: KinomeScan; assay type: binding; settings: read-out: % control
[21] = molecular target: T18, STK33 (Homo sapiens, UniProt Q9BYT3); experiment: KinomeScan; assay type: binding; settings: read-out: % control
T18 construct: purchased DiscoveRx KINOMEscan

[22] = molecular target: T19, IRAK1 (Homo sapiens, UniProt P51617); experiment: KinomeScan; assay type: binding; settings: read-out: % control
T19 construct: purchased DiscoveRx KINOMEscan

[23] = molecular target: T20, SYK (Homo sapiens, UniProt P43405); experiment: KinomeScan; assay type: binding; settings: read-out: % control
T20 construct: purchased DiscoveRx KINOMEscan

[24] = molecular target: T21, PRKCE (Homo sapiens, UniProt Q02156); experiment: KinomeScan; assay type: binding; settings: read-out: % control
T21 construct: purchased DiscoveRx KINOMEscan

[25] = molecular target: T22, MST2 (Homo sapiens, UniProt Q13188); experiment: KinomeScan; assay type: binding; settings: read-out: % control
T22 construct: purchased DiscoveRx KINOMEscan
T22 sequence (Q13188 whole entry): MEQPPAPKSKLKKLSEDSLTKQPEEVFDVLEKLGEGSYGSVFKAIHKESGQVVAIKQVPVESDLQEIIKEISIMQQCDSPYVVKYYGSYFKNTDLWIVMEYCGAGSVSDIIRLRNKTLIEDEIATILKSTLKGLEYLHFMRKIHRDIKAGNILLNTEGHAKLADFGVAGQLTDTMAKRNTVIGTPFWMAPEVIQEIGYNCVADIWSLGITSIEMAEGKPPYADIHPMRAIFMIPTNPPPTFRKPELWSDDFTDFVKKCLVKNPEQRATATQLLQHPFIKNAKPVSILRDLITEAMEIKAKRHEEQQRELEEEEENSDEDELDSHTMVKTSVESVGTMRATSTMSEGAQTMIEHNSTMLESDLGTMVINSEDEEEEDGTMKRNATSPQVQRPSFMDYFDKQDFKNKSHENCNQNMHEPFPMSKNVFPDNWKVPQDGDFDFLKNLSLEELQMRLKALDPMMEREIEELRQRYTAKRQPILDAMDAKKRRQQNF

[26] = molecular target: T23, WEE2 (Homo sapiens, UniProt P0C1S8); experiment: KinomeScan; assay type: binding; settings: read-out: % control
T23 construct: purchased DiscoveRx KINOMEscan

[27] = molecular target: T24, SIK (Homo sapiens, UniProt P57059); experiment: KinomeScan; assay type: binding; settings: read-out: % control
T24 construct: purchased DiscoveRx KINOMEscan

[28] = tested on: BaF3-FL-EGFR-del19; experiment: Anti-proliferation, BaF3 isogenic cell lines (CellTiter-Glo); assay type: cell-based; settings: Mus musculus, 72 hours, triplet testing
[29] = molecular target: T25, DMPK (Homo sapiens, UniProt Q09013); experiment: KinomeScan; assay type: binding; settings: read-out: % control
T25 construct: purchased DiscoveRx KINOMEscan
T25 sequence (Q09013 whole entry): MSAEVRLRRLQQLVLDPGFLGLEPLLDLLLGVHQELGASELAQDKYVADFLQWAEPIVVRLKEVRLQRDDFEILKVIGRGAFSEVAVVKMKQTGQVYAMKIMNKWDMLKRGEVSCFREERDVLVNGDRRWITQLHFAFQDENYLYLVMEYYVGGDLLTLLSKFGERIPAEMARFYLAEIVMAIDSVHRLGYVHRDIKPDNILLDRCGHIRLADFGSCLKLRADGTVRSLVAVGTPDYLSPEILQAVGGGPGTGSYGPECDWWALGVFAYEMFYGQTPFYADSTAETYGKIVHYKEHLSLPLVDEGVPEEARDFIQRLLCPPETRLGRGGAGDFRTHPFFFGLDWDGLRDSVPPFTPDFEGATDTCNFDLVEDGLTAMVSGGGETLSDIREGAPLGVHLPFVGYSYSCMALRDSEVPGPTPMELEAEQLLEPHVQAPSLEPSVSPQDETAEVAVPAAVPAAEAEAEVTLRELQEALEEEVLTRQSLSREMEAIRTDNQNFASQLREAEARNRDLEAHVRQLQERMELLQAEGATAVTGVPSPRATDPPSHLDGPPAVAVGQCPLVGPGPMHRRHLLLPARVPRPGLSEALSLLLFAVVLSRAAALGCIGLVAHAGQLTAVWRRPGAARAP

[30] = molecular target: T26, ALK(C1156Y) (Homo sapiens, UniProt Q9UM73, C1156Y); experiment: KinomeScan; assay type: binding; settings: read-out: % control
T26 construct: purchased DiscoveRx KINOMEscan

[31] = molecular target: T27, EPHA3 (Homo sapiens, UniProt P29320); experiment: KinomeScan; assay type: binding; settings: read-out: % control
T27 construct: purchased DiscoveRx KINOMEscan

[32] = molecular target: T28, IKK-beta (Homo sapiens, UniProt O14920); experiment: KinomeScan; assay type: binding; settings: read-out: % control
T28 construct: purchased DiscoveRx KINOMEscan
T28 sequence (O14920 whole entry): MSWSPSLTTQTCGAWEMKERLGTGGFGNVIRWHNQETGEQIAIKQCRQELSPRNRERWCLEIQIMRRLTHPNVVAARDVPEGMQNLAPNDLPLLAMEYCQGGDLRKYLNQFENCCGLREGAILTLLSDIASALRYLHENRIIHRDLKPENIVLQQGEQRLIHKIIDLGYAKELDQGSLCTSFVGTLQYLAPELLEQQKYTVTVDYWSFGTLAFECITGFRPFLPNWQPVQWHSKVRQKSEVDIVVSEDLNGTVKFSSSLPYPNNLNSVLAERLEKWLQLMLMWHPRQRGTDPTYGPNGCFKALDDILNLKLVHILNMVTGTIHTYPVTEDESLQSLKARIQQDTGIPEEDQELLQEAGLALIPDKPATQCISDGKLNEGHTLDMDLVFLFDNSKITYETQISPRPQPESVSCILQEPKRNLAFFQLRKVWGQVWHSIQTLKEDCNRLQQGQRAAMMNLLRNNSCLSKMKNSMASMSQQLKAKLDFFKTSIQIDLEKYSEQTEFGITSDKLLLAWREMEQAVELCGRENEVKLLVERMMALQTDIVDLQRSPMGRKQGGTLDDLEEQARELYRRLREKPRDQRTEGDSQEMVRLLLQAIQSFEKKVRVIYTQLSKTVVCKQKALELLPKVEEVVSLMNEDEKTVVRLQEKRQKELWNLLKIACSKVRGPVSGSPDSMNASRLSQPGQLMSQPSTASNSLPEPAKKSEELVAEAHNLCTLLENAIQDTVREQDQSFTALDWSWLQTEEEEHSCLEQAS

[33] = molecular target: T29, PLK4 (Homo sapiens, UniProt O00444); experiment: KinomeScan; assay type: binding; settings: read-out: % control
T29 construct: purchased DiscoveRx KINOMEscan

[34] = molecular target: T30, PDGFRB (Homo sapiens, UniProt P09619); experiment: KinomeScan; assay type: binding; settings: read-out: % control
T30 construct: purchased DiscoveRx KINOMEscan

[35] = molecular target: T31, PIK3CA(E542K) (Homo sapiens, UniProt P42336, E542K); experiment: KinomeScan; assay type: binding; settings: read-out: % control
T31 construct: purchased DiscoveRx KINOMEscan
T31 sequence (P42336 whole entry E542K): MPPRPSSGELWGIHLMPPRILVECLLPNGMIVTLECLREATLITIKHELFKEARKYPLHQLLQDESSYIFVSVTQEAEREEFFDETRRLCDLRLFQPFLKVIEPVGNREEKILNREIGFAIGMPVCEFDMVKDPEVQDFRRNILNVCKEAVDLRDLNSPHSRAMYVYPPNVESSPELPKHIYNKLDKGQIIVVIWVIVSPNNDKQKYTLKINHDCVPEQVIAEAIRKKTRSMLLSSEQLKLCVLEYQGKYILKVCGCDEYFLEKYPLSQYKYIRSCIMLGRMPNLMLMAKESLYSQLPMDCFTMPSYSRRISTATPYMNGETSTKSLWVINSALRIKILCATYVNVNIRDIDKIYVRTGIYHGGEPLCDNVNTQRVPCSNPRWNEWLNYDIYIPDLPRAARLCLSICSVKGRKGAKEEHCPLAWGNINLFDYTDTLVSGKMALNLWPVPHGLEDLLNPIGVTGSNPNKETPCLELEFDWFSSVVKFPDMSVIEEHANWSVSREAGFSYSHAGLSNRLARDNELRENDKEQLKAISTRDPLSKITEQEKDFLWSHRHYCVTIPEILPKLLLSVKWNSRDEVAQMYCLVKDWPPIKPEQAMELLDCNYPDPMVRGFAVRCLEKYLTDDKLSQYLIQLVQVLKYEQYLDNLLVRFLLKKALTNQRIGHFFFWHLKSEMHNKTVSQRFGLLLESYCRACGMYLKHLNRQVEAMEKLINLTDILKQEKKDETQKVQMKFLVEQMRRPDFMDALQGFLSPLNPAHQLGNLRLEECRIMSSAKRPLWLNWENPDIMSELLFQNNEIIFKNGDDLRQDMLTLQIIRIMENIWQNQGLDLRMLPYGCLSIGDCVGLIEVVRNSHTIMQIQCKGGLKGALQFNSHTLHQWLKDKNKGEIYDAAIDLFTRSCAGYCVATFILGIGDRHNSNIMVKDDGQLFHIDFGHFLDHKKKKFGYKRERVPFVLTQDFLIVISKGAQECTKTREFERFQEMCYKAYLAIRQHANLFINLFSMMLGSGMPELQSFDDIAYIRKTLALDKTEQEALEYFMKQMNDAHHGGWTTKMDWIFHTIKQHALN

[36] = molecular target: T32, PIK3CB (Homo sapiens, UniProt P42338); experiment: KinomeScan; assay type: binding; settings: read-out: % control
T32 construct: purchased DiscoveRx KINOMEscan

[37] = molecular target: T33, GCN2(Kin.Dom.2,S808G) (Homo sapiens, UniProt Q9P2K8, S808G); experiment: KinomeScan; assay type: binding; settings: read-out: % control
T33 construct: GCN2(Kin.Dom.2,S808G); purchased DiscoveRx KINOMEscan

[38] = molecular target: T34, MAP3K1 (Homo sapiens, UniProt Q13233); experiment: KinomeScan; assay type: binding; settings: read-out: % control
T34 construct: purchased DiscoveRx KINOMEscan

[39] = molecular target: T35, PIK3CA(H1047L) (Homo sapiens, UniProt P42336, H1047L); experiment: KinomeScan; assay type: binding; settings: read-out: % control
T35 construct: purchased DiscoveRx KINOMEscan
T35 sequence (P42336 whole entry H1047L): as the sequence (P42336 whole entry E542K) above, with K542E, H1047L counted along it

[40] = molecular target: T36, KIT(A829P) (Homo sapiens, UniProt P10721, A829P); experiment: KinomeScan; assay type: binding; settings: read-out: % control
T36 construct: purchased DiscoveRx KINOMEscan
T36 sequence (P10721 26-976 A829P): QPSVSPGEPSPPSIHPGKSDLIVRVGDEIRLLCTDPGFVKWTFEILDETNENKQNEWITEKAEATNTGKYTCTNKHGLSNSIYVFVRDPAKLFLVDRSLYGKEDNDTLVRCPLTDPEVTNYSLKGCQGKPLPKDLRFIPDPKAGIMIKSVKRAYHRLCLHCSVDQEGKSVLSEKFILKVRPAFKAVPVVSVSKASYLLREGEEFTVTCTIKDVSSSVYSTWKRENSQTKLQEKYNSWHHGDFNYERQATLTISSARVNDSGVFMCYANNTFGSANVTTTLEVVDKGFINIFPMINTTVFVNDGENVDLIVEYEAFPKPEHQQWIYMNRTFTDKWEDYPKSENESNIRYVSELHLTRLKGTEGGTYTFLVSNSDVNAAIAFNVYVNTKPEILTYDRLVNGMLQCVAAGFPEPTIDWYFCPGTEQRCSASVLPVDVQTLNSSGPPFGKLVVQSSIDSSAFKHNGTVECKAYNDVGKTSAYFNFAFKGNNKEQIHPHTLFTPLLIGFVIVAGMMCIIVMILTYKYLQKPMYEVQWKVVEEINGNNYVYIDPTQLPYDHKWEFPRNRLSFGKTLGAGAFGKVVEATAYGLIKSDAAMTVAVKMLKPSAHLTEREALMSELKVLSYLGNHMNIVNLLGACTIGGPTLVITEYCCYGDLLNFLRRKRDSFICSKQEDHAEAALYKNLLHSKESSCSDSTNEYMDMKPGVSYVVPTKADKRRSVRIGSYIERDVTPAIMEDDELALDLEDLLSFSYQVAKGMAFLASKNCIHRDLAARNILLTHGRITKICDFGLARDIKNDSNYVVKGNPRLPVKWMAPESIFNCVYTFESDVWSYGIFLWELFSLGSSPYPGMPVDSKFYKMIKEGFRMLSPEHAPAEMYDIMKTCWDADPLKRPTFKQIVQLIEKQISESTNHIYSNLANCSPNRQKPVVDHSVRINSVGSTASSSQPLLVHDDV

[41] = molecular target: T37, PIK3CA(E545K) (Homo sapiens, UniProt P42336, E545K); experiment: KinomeScan; assay type: binding; settings: read-out: % control
T37 construct: purchased DiscoveRx KINOMEscan
T37 sequence (P42336 whole entry E545K): as the sequence (P42336 whole entry E542K) above, with K542E, E545K counted along it

[42] = molecular target: T38, LKB1 (Homo sapiens, UniProt Q15831); experiment: KinomeScan; assay type: binding; settings: read-out: % control
T38 construct: purchased DiscoveRx KINOMEscan

[43] = molecular target: T39, WEE1 (Homo sapiens, UniProt P30291); experiment: KinomeScan; assay type: binding; settings: read-out: % control
T39 construct: purchased DiscoveRx KINOMEscan

Work on `C=CC(=O)N1CCC[C@@H](n2nc(-c3ccc(OCc4cccc(C)n4)c(Cl)c3)c3c(N)ncnc32)C1` [CHMFL-EGFR-26] yielded a remaining binding at 1 µM [1] of 100%, a remaining binding at 1 µM [2] of 72% and a remaining binding at 1 µM [3] of 100%. It also gave a remaining binding at 1 µM [4] of 91%, a remaining binding at 1 µM [5] of 100% and a remaining binding at 1 µM [6] of 91%. The remaining binding at 1 µM [7] was 15%, the remaining binding at 1 µM [8] was 100% and the remaining binding at 1 µM [9] was 77%. The remaining binding at 1 µM [10] was 100%, the GI50 [11] was 5400 nM and the remaining binding at 1 µM [12] was 0.35%. It also gave a remaining binding at 1 µM [13] of 100%, a remaining binding at 1 µM [14] of 100% and a remaining binding at 1 µM [15] of 99%. The remaining binding at 1 µM [16] was 95%, the remaining binding at 1 µM [17] was 95% and the remaining binding at 1 µM [18] was 100%. The GI50 [19] was 340 nM, the remaining binding at 1 µM [20] was 100% and the remaining binding at 1 µM [21] was 100%. The remaining binding at 1 µM [22] was 100%, the remaining binding at 1 µM [23] was 94% and the remaining binding at 1 µM [24] was 99%. The remaining binding at 1 µM [25] was 53%, the remaining binding at 1 µM [26] was 84% and the remaining binding at 1 µM [27] was 69%. It also gave a GI50 [28] of 13 nM, a remaining binding at 1 µM [29] of 66% and a remaining binding at 1 µM [30] of 100%. It also gave a remaining binding at 1 µM [31] of 89%, a remaining binding at 1 µM [32] of 98% and a remaining binding at 1 µM [33] of 99%. The remaining binding at 1 µM [34] was 94%, the remaining binding at 1 µM [35] was 93% and the remaining binding at 1 µM [36] was 94%. The remaining binding at 1 µM [37] was 90%, the remaining binding at 1 µM [38] was 82% and the remaining binding at 1 µM [39] was 81%. For the same compound, the remaining binding at 1 µM [40] was 100%, the remaining binding at 1 µM [41] was 81% and the remaining binding at 1 µM [42] was 79%. For the same compound, the remaining binding at 1 µM [43] was 85%.
